Tested on: patients with advanced or metastatic solid tumors
Experiment: Trial 1403-0001 Phase Ia dose escalation, Arm B (D1 D8 q4w): adverse events
Format: in vivo
Details: for Subjects with any AE, % / Subjects with investigator defined drug-related AEs, % / Subjects with maximum CTC Grade 1, % / Subjects with maximum CTC Grade 2, % / Subjects with maximum CTC Grade 3, % / Subjects with maximum CTC Grade 4, % / Subjects with maximum CTC Grade 5, % / Subjects with serious AEs, % / AEs leading to Discontinuation: Dose limiting toxicity, % / AEs leading to Discontinuation: Other adverse event, % / Patients with Dose limiting toxicity, % / Serious AEs: Cogenital Anomaly or Birth Defect, % / Serious AEs: Is Life Threatening, % / Serious AEs: Other Medically Important Serious Event, % / Serious AEs: Persists of Signif. Disability/Incapacity, % / Serious AEs: Requires or Prolongs Hospitalization, % / Serious AEs: Results in Death, % / Subjects with AEs leading to Discontinuation of trial drug, % / Subjects with AEs leading to dose reduction of trial drug, %: Arm B D1 D8 q4w
Method: The Phase Ia dose escalation part aimed to define the Maximum Tolerated Dose (MTD) and the Recommended Dose for Expansion (RDE) for the MDM2-antagonist of formula I based on safety and tolerability, pharmacokinetics, pharmacodynamics, and preliminary efficacy. The RDE will be further explored in the Phase Ib expansion part of the trial.
Dose levels evaluated in Arm A were 10, 20, 30, 45, 50, 60, and 80 mg. Dose levels evaluated in Arm B (referring to the dose administered on Day 1 and Day 8) were 5, 10, 15, 20, 30, 45, and 60 mg.

Cc1c(C(=O)O)ccc2c3n(nc12)[C@@H]1[C@H](C3)N(CC2CC2)[C@@]2(C(=O)Nc3cc(Cl)ccc32)[C@H]1c1cccc(Cl)c1F [MDM2-antagonist of formula I, (2′S,3′S,3a'S,10a'S)-6-chloro-3′-(3-chloro-2-fluorophenyl)-1′-(cyclopropylmethyl)-6′-methyl-2-oxo-1,2,3′,3a′,10′,10a′-hexahydro-1′H-spiro[indole-3,2′-pyrrolo[2′,3′:4,5]pyrrolo[1,2-b]indazole]-7′-carboxylic acid]
Subjects with any AE, % (30 mg): 100% | Subjects with investigator defined drug-related AEs, % (30 mg): 100% | Subjects with maximum CTC Grade 1, % (30 mg): 50.0% | Subjects with maximum CTC Grade 2, % (30 mg): 25.0% | Subjects with maximum CTC Grade 3, % (30 mg): 0% | Subjects with maximum CTC Grade 4, % (30 mg): 25.0% | Subjects with maximum CTC Grade 5, % (30 mg): 0% | Subjects with serious AEs, % (30 mg): 25.0% | AEs leading to Discontinuation: Dose limiting toxicity, % (45 mg): 0% | AEs leading to Discontinuation: Other adverse event, % (45 mg): 16.7% | Patients with Dose limiting toxicity, % (45 mg): 16.7% | Serious AEs: Cogenital Anomaly or Birth Defect, % (45 mg): 0% | Serious AEs: Is Life Threatening, % (45 mg): 0% | Serious AEs: Other Medically Important Serious Event, % (45 mg): 16.7% | Serious AEs: Persists of Signif. Disability/Incapacity, % (45 mg): 16.7% | Serious AEs: Requires or Prolongs Hospitalization, % (45 mg): 33.3% | Serious AEs: Results in Death, % (45 mg): 0% | Subjects with AEs leading to Discontinuation of trial drug, % (45 mg): 16.7% | Subjects with AEs leading to dose reduction of trial drug, % (45 mg): 16.7% | Subjects with any AE, % (45 mg): 100% | Subjects with investigator defined drug-related AEs, % (45 mg): 100% | Subjects with maximum CTC Grade 1, % (45 mg): 0% | Subjects with maximum CTC Grade 2, % (45 mg): 33.3% | Subjects with maximum CTC Grade 3, % (45 mg): 50.0% | Subjects with maximum CTC Grade 4, % (45 mg): 16.7% | Subjects with maximum CTC Grade 5, % (45 mg): 0% | Subjects with serious AEs, % (45 mg): 50.0% | AEs leading to Discontinuation: Dose limiting toxicity, % (60 mg): 0% | AEs leading to Discontinuation: Other adverse event, % (60 mg): 0% | Patients with Dose limiting toxicity, % (60 mg): 66.7% | Serious AEs: Cogenital Anomaly or Birth Defect, % (60 mg): 0% | Serious AEs: Is Life Threatening, % (60 mg): 0% | Serious AEs: Other Medically Important Serious Event, % (60 mg): 0% | Serious AEs: Persists of Signif. Disability/Incapacity, % (60 mg): 0% | Serious AEs: Requires or Prolongs Hospitalization, % (60 mg): 66.7% | Serious AEs: Results in Death, % (60 mg): 0% | Subjects with AEs leading to Discontinuation of trial drug, % (60 mg): 0% | Subjects with AEs leading to dose reduction of trial drug, % (60 mg): 66.7% | Subjects with any AE, % (60 mg): 100% | Subjects with investigator defined drug-related AEs, % (60 mg): 100% | Subjects with maximum CTC Grade 1, % (60 mg): 0% | Subjects with maximum CTC Grade 2, % (60 mg): 0% | Subjects with maximum CTC Grade 3, % (60 mg): 33.3% | Subjects with maximum CTC Grade 4, % (60 mg): 66.7% | Subjects with maximum CTC Grade 5, % (60 mg): 0% | Subjects with serious AEs, % (60 mg): 66.7% | AEs leading to Discontinuation: Dose limiting toxicity, % (Total): 0% | AEs leading to Discontinuation: Other adverse event, % (Total): 4.0% | Patients with Dose limiting toxicity, % (Total): 12.0% | Serious AEs: Cogenital Anomaly or Birth Defect, % (Total): 0% | Serious AEs: Is Life Threatening, % (Total): 0% | Serious AEs: Other Medically Important Serious Event, % (Total): 12.0% | Serious AEs: Persists of Signif. Disability/Incapacity, % (Total): 4.0% | Serious AEs: Requires or Prolongs Hospitalization, % (Total): 28.0% | Serious AEs: Results in Death, % (Total): 0% | Subjects with AEs leading to Discontinuation of trial drug, % (Total): 4.0% | Subjects with AEs leading to dose reduction of trial drug, % (Total): 24% | Subjects with any AE, % (Total): 100% | Subjects with investigator defined drug-related AEs, % (Total): 92.0% | Subjects with maximum CTC Grade 1, % (Total): 20.0% | Subjects with maximum CTC Grade 2, % (Total): 36.0% | Subjects with maximum CTC Grade 3, % (Total): 28.0% | Subjects with maximum CTC Grade 4, % (Total): 16.0% | Subjects with maximum CTC Grade 5, % (Total): 0% | Subjects with serious AEs, % (Total): 36.0% | Subjects with AEs leading to dose reduction of trial drug, % (Total, listed as Comp. I): 24.0% | AE alopecia, patients (Arm B, all 25 patients): 24.0% | AE decreased appetite, patients (Arm B, all 25 patients): 40.0% | AE diarrhea, patients (Arm B, all 25 patients): 44.0% | AE fatigue, patients (Arm B, all 25 patients): 52.0% | AE nausea, patients (Arm B, all 25 patients): 92.0% | AE platelet count decreased, patients (Arm B, all 25 patients): 28.0% | AE vomiting, patients (Arm B, all 25 patients): 64.0% | Grade 3 AE anemia, patients (Arm B, all 25 patients): 8.0% | Grade 3 AE platelet count decreased, patients (Arm B, all 25 patients): 8.0% | Grade 4 AE neutrophil count decreased, patients (Arm B, all 25 patients): 8.0% | Grade 4 AE platelet count decreased, patients (Arm B, all 25 patients): 8.0% | SAE platelet count decreased, patients (Arm B, all 25 patients): 8.0% | dose reduction due to diarrhea, patients (Arm B, all 25 patients): 4.0% | dose reduction due to neutropenia and/or thrombocytopenia, patients (Arm B, all 25 patients): 20.0% | drug-related AE alopecia, patients (Arm B, all 25 patients): 24.0% | drug-related AE decreased appetite, patients (Arm B, all 25 patients): 28.0% | drug-related AE diarrhea, patients (Arm B, all 25 patients): 32.0% | drug-related AE fatigue, patients (Arm B, all 25 patients): 40.0% | drug-related AE nausea, patients (Arm B, all 25 patients): 76.0% | drug-related AE platelet count decreased, patients (Arm B, all 25 patients): 28.0% | drug-related AE vomiting, patients (Arm B, all 25 patients): 60.0% | fatal AEs (Arm B, all 25 patients): No fatal AEs were reported

From patent publication US20230058171A1, “NEW ORAL PHARMACEUTICAL COMPOSITION FOR CANCER THERAPY” (BOEHRINGER INGELHEIM INTERNATIONAL GMBH, priority 2021, published 2023)
